This is an account of results in patent US7183094B2, “Bacterial mycothiol S-conjugate amidase family” (The Regents of the University of California, priority 1999, dated 2007).

Molecules are shown by their SMILES.

The target in experiment [1] is mycothiol S-conjugate amidase in partially purified M. smegmatis cell extract (Mycolicibacterium smegmatis, UniProt A0R2W9). The note with it: for product yielded from 1.0 equivalent of MSmB (0.1 nmol): 4 determinations at >50% conversion.
Protocol: The experiment was repeated using a partially purified cell extract and samples of the incubation mixture were analyzed at intervals for the other potential product of MSmB cleavage, GlcN-Ins, as well as for MSmB and AcCySmB.
A preparation of the mycothiol S-conjugate amidase (30–50% saturated ammonium sulfate fraction chromatographed on Sephadex G-75) was used to study the stoichiometry of the reaction. Reaction was initiated by mixing a sample (9 μL, 7 μg total protein) of the preparation of the enzyme with 0.9 mL of 50 mM sodium phosphate, pH 7.5 containing 100 μM MSmB.
For determination of bimane derivatives of thiols, a sample (70 μL) of reaction mixture was removed, mixed with 4 μL 5 M methanesulfonic acid, and analyzed by HPLC without dilution.
For analysis of GlcN-Ins, a sample (2–8 μL) of the reaction mixture was mixed with enough 1M HEPES chloride pH 8 to bring the volume to 10 μl and then with 5 μL acetonitrile and 5 μL of 10 mM AccQ-Fluor reagent (6-aminoquinolyl-N-hydroxysuccinimidyl carbamate, Waters). The mixtures were incubated for 1 min at room temperature followed by 10 min at 60° C., diluted with 60 μL of water, and quantified by HPLC as previously described (S. J. Anderberg, et al. (1998) supra.).
In experiment [2] the target is T1, purified M. smegmatis mycothiol S-conjugate amidase (Mycolicibacterium smegmatis, UniProt A0R2W9). Nature of the experiment: Substrate specificity of purified mycothiol S-conjugate amidase (GlcN-Ins production). The format is biochemical, Mycobacterium smegmatis. The note with it: for Activity: GlcN-Ins production from 0.1 mM substrate by 0.022 μg purified amidase at 30 C; for Relative Activity (%): relative to MSmB taken as 100%, 0.1 mM substrate. How it is done:
The specificity of the amidase for substrate was assessed by measuring the production of GlcN-Ins in most cases. A sample (5 μL) of 1 mM substrate was mixed with 40 μL of 3 mM 2-mercaptoethanol, 25 mM HEPES chloride, pH 7.5. The reaction was initiated with 5 μL of purified amidase (50-fold diluted stock, 4.4 μg ml^−1). Triplicate samples were quenched at 0, 10, and 30 min by mixing each sample with 50 μL of acetonitrile containing 5 mM NEM and incubating at 60 C for 10 min. After cooling on ice, the samples were clarified by centrifugation for 15 min at 14000 g. […]

The target of experiment [3] is M. tuberculosis mycothiol S-conjugate amidase (Rv1082) (Mycobacterium tuberculosis, UniProt P9WJN1). Nature of the experiment: Amidase activity of recombinant Rv1082 protein expressed in E. coli. The format is biochemical, Mycobacterium tuberculosis H37Rv. The note with it: for amidase activity: 0.1 mM (100 μM) substrate, extracts of IPTG-induced cells. How it is done: Purification and renaturation of mycothiol S-conjugate amidase from inclusion bodies. The approach taken involved solublization of the inclusion bodies in a highly concentrated urea and DTT solution followed by […] Cells were cultured in Luria Bertani broth containing 100 μg/mL ampicillin at 37° C. to OD600=0.8 when isopropyl-β-D-thiogalactopyranoside added to 0.4 mM and the culture was shaken overnight at 25° C. Cells were pelleted by centrifugation for 10 min at 5000 g and 4° C., sonicated in 5 volumes of assay buffer on ice, and centrifuged for 5 min at 14000 g at room temperature. About 85% of the amidase activity, using MSmB as substrate, was associated with the pellet fraction which was resuspended and incubated with periodic vortexing for 1 h at 37° C. in 8 M urea containing 20 mM DTT. The suspension was centrifuged for 3 min at 14000 g and the supernatant dialyzed against 100 volumes of 25 mM HEPES chloride pH 7.5 containing 1 mM glutathione disulfide and 2 mM glutathione for 15 h, and then against 100 volumes of 25 mM HEPES chloride pH 7.5 containing 3 mM 2-mercaptoethanol for 4 h. After centrifugation, the supernatant contained soluble amidase activity and was assayed with 0.1 mM mycothiol and 0.1 mM MSmB as described above.
Alkylation of MSH with mBBr produces the fluorescent S-conjugate, MSmB, which can be quantitated by HPLC with fluorescence detection (Newton et al. 1995; Newton et al. 1996). E coli has no mycothiol metabolism and is not expected to contain mycothiol conjugate amidase endogenous proteins that would give background to these assays.
Functional and Comparative analysis of mycothiol S-conjugate amidase. […] When these extracts were assayed with 0.1 mM mycothiol as substrate, <0.002 nmol/min/mg amidase activity was observed. […] (Table 2).

The target in experiment [4] is T1, purified M. smegmatis mycothiol S-conjugate amidase. Here is the method:
In vitro Enzymatic assays. […] Separation of the various modified thiols was performed by high-pressure liquid chromatography (HPLC). A sample (2–10 μL) of extract was mixed with 40 μL of 30 μM MSmB in 3 mM 2-mercaptoethanol, 25 mM N-2-hydroxyethylpiperazine-N′-2-ethanesulfonic acid (HEPES) chloride pH 7.5 and reacted […] at 30° C. before quenching the reaction with 50 μL of 40 mM methanesulfonic acid on ice. The mixture was centrifuged for 3 min at 14,000×g in a microcentrifuge at room temperature and the supernatant analyzed by HPLC without dilution. A shortened version (45 min) of HPLC method 1 of Fahey and Newton (R. C. Fahey, et al. (1987) Methods Enzymol. 143:85–96) was used for separation of MSmB and AcCySmB.

The target of experiment [5] is M. smegmatis mycothiol S-conjugate amidase (Mycolicibacterium smegmatis, UniProt A0R2W9). Nature of the experiment: Inhibition of amidase cleavage of MSmB. The format is biochemical, Mycobacterium smegmatis. Conditions: 100 μM MSmB as substrate, n=2. Here is the method: Tests were also conducted to determine whether mycothiol inhibits the cleavage of 100 μM MSmB by invention S-conjugate amidase. The amidase activity was decreased by 30±3, 48±3, and 89±3% (n=2) at 1, 3, and 10 mM mycothiol, respectively.
Preparation of Mycothiol S-conjugates. Mycothiol S-conjugates were prepared by reaction of excess electrophile with mycothiol followed by removal or reaction of excess electrophile. Stock solutions (100 mM) of electrophile were prepared in acetonitrile (NEM, iodoacetamide; Sigma) or in dimethylsulfoxide [7-diethylamino-3-(4′-maleimidylphenyl)-4-methylcoumarin (CPM, Molecular Probes), 3-(N-maleimidopropionyl)biocytin (MPB, Sigma)]. Reaction with these electrophiles at 2 mM in 25 mM *HEPES chloride pH 7.5 was initiated by addition of mycothiol to 1 mM from a 32 mM stock solution in H2O (pH˜3) and was allowed to proceed 15 min in the dark. Excess reagent was removed by extracting 3 times with an equal volume of H2O-saturated dichloromethane. A cerulenin (Sigma) stock solution (100 mM in acetonitrile) was diluted 5-fold in 25 mM HEPES chloride pH 7.5, reacted 15 min with 1 mM mycothiol, and extracted 5 times with H2O-saturated dichloromethane. Prior to extraction a 1 μL aliquot was withdrawn for reaction with mBBr and analysis of residual mycothiol by HPLC. […] Stock solutions (50 mM) of p-sulfobenzoyloxybromobimane (sBBr) and monobromotrimethylammoniobimane (qBBr) were prepared in 50% aqueous dimethylsulfoxide and diluted to 2 mM for reaction with 1 mM mycothiol in 25 mM HEPES chloride pH 7.5 for 15 min. Since these charged electrophiles cannot be extracted with dichloromethane, reaction was terminated with excess (1.1 mM) 2-mercaptoethanol.

The subject of experiment [6] is M. smegmatis mc^2155 cells. Nature of the experiment: M. smegmatis culture treated with mBBr: fate of mycothiol-related compounds and growth. The experiment is classed as cell-based, Mycobacterium smegmatis. Here is the method: Since mBBr is known to penetrate cells rapidly and to convert intracellular thiols to their bimane derivatives (Newton, et al. (1995) supra.), the fate of mycothiol in M. smegmatis cells treated with mBBr was examined to ascertain whether the reaction shown in FIG. 1C occurs in vivo. A logarithmic phase culture of M. smegmatis was cooled on ice to ˜3° C. to reduce enzymatic reactions prior to reaction with 0.5 mM mBBr. Excess reagent was reacted with 2-mercaptoethanol and the cells were pelleted, washed, and resuspended in a small amount of ice cold medium. The cells were diluted with prewarmed medium and replaced in the shaking incubator at 37° C. (time, t=0). Samples were removed and analyzed for intracellular and extracellular mycothiol related compounds over a 4 h interval (FIG. 3).
A logarithmic phase culture of M. smegmatis was cooled on ice to ˜3° C. to reduce enzymatic reactions prior to reaction with 0.5 mM mBBr. Excess reagent was reacted with 2-mercaptoethanol and the cells were pelleted, washed, and resuspended in a small amount of ice cold medium. The cells were diluted with prewarmed medium and replaced in the shaking incubator at 37° C. (time, t=0). Samples were removed and analyzed for intracellular and extracellular mycothiol related compounds over a 4 h interval (FIG. 3).
At t=0, […] per 100 mL (3.5 μmol per g RDW) of AcCySmB was present in the cells and […] per 100 mL was found in the medium. Within 5 min the cellular AcCySmB level had fallen to […] per 100 mL and the medium level increased to 220 nmol per 100 mL. Subsequent analyses found essentially all of the AcCySmB in the medium at a level of 225–230 nmol per 100 mL, accounting for 80–90% of the original cellular mycothiol content. No MSmB appears to be exported from cells as […] (<0.5%) was detected in the medium or the cell washes. A logarithmic phase culture (1 L) of M. smegmatis mc^2155 (OD600=1.2) in 7H9 Middlebrook medium was cooled on ice to 3° C. The iced culture was incubated with mBBr (0.5 mM from a 180 mM stock solution in acetonitrile) for 20 min; excess 2-mercaptoethanol (1.0 mM) was added, and the incubation continued on ice for an additional 10 min. The cells were pelleted by centrifugation and washed twice with 200 mL of sterile, ice-cold 7H9 Middlebrook medium to remove excess bimane derivative of 2-mercaptoethanol. The cells were resuspended in 50 mL of sterile ice cold medium and the experiment was initiated (t=0) by dilution into 950 mL of prewarmed (37° C.) 7H9 Middlebrook medium. The cell suspension was shaken in an incubator (225 rpm, 37° C.) and a “t=0” sample (100 mL) was removed from the culture within one min. […]

Setting [7] is: 0.1 mM substrate, resolubilized crude protein extract.

M. tuberculosis mycothiol S-conjugate amidase (Rv1082), sequence (P9WJN1 whole entry, looked up): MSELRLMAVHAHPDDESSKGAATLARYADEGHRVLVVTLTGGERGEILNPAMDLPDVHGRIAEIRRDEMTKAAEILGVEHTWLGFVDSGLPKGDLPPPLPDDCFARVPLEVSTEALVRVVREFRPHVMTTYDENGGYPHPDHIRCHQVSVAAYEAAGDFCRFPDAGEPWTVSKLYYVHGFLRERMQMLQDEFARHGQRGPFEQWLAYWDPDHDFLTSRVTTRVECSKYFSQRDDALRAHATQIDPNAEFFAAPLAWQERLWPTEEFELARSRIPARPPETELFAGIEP
T1 sequence (A0R2W9 whole entry): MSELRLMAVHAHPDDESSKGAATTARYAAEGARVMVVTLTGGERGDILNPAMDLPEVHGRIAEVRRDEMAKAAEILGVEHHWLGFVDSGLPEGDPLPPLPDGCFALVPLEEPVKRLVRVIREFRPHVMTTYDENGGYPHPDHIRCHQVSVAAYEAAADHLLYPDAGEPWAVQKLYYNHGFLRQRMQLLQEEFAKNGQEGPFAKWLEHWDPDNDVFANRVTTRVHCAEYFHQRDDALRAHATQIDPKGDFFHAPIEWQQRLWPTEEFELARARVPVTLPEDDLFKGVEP
mycothiol S-conjugate amidase in partially purified M. smegmatis cell extract, sequence (A0R2W9 whole entry): as above
M. smegmatis mycothiol S-conjugate amidase, sequence (A0R2W9 whole entry): as above

In the case of `CC(=O)N[C@@H](CSCc1c(C)c(=O)n2c(=O)c(C)c(C)n12)C(=O)O` [AcCySmB], the “product yielded from 1.0 equivalent of MSmB (0.1 nmol)” value in experiment [1] stood at 1.00±0.02 equivalent.

Take `N[C@H]1[C@@H](OC2[C@H](O)[C@H](O)C(O)[C@H](O)[C@H]2O)O[C@H](CO)[C@@H](O)[C@@H]1O` (stereo partly drawn) [GlcN-Ins, 1-D-myo-inosityl-2-amino-2-deoxy-α-D-glucopyranoside]: in experiment [1], the “product yielded from 1.0 equivalent of MSmB (0.1 nmol)” value is 0.80±0.08 equivalent.

The term Km denotes the substrate concentration at which the rate is half of its maximum. What is called kcat is the maximal rate divided by the concentration of active sites. As for `CC(=O)N[C@@H](CSCc1c(C)c(=O)n2c(=O)c(C)c(C)n12)C(=O)N[C@H]1[C@@H](OC2[C@H](O)[C@H](O)C(O)[C@H](O)[C@H]2O)O[C@H](CO)[C@@H](O)[C@@H]1O` (stereo partly shown) [MSmB], the “conversion of MSmB” value in experiment [1] (60 min at 23° C.) amounted to 97%. For the same compound, in experiment [2], the Activity amounted to 4480 ± 870 nmol/min/mg and the “Relative Activity (%)” value is “(100) %”. In addition, the amidase activity in experiment [3] is 4.1 nmol/min/mg. In experiment [3] (setting [7]), the AcCysmB produced is 5.4±0.3 nmoles/min/mg protein and the GlcN-Ins produced was determined as 4.1±0.05 nmoles/min/mg protein. In experiment [3] (recombinant M. tuberculosis amidase), the “rate enhancement relative to mycothiol (free thiol)” value is given as “more than 2000 fold”. Further, in experiment [4] (30 μM MSmB as substrate), the “specific activity of pooled G-100 peak fractions” value is reported as ~3,000 nmol/min-mg protein. In experiment [4] (30 μM MSmB, purified amidase), this compound displayed an amidase reaction rate of roughly 3000 nmol/min/mg. Besides, in experiment [4] (MSmB as substrate), the Km was found to be 95 ± 8 µM and the kcat stood at 8 s⁻¹.

`CC(=O)N[C@@H](CSSC[C@H](NC(C)=O)C(=O)N[C@H]1[C@@H](OC2[C@H](O)[C@H](O)C(O)[C@H](O)[C@H]2O)O[C@H](CO)[C@@H](O)[C@@H]1O)C(=O)N[C@H]1[C@@H](OC2[C@H](O)[C@H](O)C(O)[C@H](O)[C@H]2O)O[C@H](CO)[C@@H](O)[C@@H]1O` (stereo partly shown) [Mycothiol disulfide]: in experiment [2], the Activity turned out to be 25 ± 1 nmol/min/mg and the “Relative Activity (%)” value was 0.6%.

Consider `CC(=O)N[C@@H](CS)C(=O)N[C@H]1[C@@H](OC2[C@H](O)[C@H](O)C(O)[C@H](O)[C@H]2O)O[C@H](CO)[C@@H](O)[C@@H]1O` (stereo partly drawn) [Mycothiol, 1-D-myo-inosityl-2-(N-acetylcysteinyl)amido-2-deoxy-α-D-glucopyranoside], for which the “decrease of amidase activity” value in experiment [5] (1 mM mycothiol) is recorded as 30±3%; in experiment [5] (3 mM mycothiol) it was 48±3%; in experiment [5] (10 mM mycothiol) it was 89±3%. In addition, the “rate as % of the rate with 0.1 mM MSmB” value in experiment [2] (2 mM mycothiol) is listed as 0.3%. For the same compound, in experiment [2] (2 mM mycothiol, conditions otherwise as for Table 2), the “rate of GlcN-Ins formation” value is 14 ± 1 nmol/min/mg. The Activity in experiment [2] is 4 ± 1 nmol/min/mg. For the same compound, the “Relative Activity (%)” value in experiment [2] was 0.1%. The amidase activity in experiment [3] is less than 0.002 nmol/min/mg. Moreover, the GlcN-Ins produced in experiment [3] (setting [7]) is reported as less than 0.0023 nmoles/min/mg protein.

Regarding `Cc1c(C)n2c(CBr)c(C)c(=O)n2c1=O` [mBBr, monobromobimane], in experiment [6] (8.5 h at 37 C after mBBr treatment), the A600 was found to be 1.6. Further, the “final A600” value in experiment [6] (30 h at 37 C after mBBr treatment) is recorded as roughly 2.6. For the same compound, the “initial decrease of A600 value” in experiment [6] (during the 4 h incubation after 0.5 mM mBBr treatment) is roughly 15%. The compound also displayed an A600 value recovered in experiment [6] (within the 4 h incubation, equals initial value) of 1.2.
